Drawing on patent publication US6846182B1, “Dental bleaching composition and method” (priority 1996, dated 2005), this text covers post-bleaching pain level and post-bleaching sensitivity for one substance.

The procedure of this assay: Fluoride has been used in dentistry to reduce sensitivity for many years. Often, when the root surface of teeth is exposed to the oral cavity due to gingival recession, these teeth become sensitive to hot, cold and sometimes sweets. […] This post bleaching pain usually has an onset of about 2 hours post-bleaching and lasts for 2 or more days.

For the substance neutral sodium fluoride, under “applied 5 minutes post bleaching”, the post-bleaching pain level entry is given as “often diminished”. Also, the post-bleaching sensitivity result (applied at least 10 minutes after bleaching is completed) is “almost completely eliminated”.
